Experimental findings from patent publication US20250206751A1, “HETEROCYCLIC COMPOUND FOR INDUCING DEGRADATION OF G12D MUTANT KRAS PROTEIN” (Astellas Pharma Inc., priority 2022, published 2025) are described below.

One test addresses T1, KRAS G12D protein (Homo sapiens, UniProt P01116, G12D).
T1 construct: host or cells: AsPC-1
Nature of the test: KRAS degradation activity by Cell ELISA in AsPC-1 (Test Example 1). The class given is cell-based. Conditions: AsPC-1 cells, cultured overnight with compound, corrected with β-actin, read-out: DC50 (50% degradation concentration of the amounts of KRAS). The protocol:
Test Example 1: Evaluation of KRAS Degradation Activity on Human G12D Mutant KRAS-Positive Pancreatic Cancer Line AsPC-1 (CRL-1682; ATCC)
The KRAS degradation activity of test compounds was evaluated by measuring the expression levels of KRAS G12D protein by Cell ELISA.
AsPC-1 cells were seeded at 20 μL per well on 384-well plates (from Greiner bio-one) to give 2.0×10^4 cells per well. As for the cell culture conditions, RPMI 1640 (from Sigma-Aldrich) medium containing 10% fetal bovine serum (from Cytiva) was used in the presence of 5% CO2 at 37° C.
The next day, the test compounds (10 points having final concentrations in the range of 10 μM to 0.3 nM) and DMSO (from FUJIFILM Wako Pure Chemical Corporation), which was the solvent for the test compounds, as a negative control were diluted 500-fold with a fresh medium and were added at 20 μL per well. The cells were cultured overnight.
The next day, the culture supernatant was removed, and 4% paraformaldehyde phosphate buffer (from FUJIFILM Wako Pure Chemical Corporation) was added at 20 μL per well. The plates were allowed to stand for 30 minutes at room temperature to thus immobilize the cells. Then, the supernatant was removed, and 0.1% Triton X-100 (from Amersham Biosciences)-containing Phosphate buffered saline (PBS; from FUJIFILM Wako Pure Chemical Corporation) was added at 20 μL per well. After allowing to stand for 10 minutes at room temperature, the supernatant was removed. PBS was added at 25 μL per well, and the supernatant was removed to thus wash each well. The washing was performed twice in total. Next, the supernatant was removed, and 0.5% sodium dodecyl sulfate (SDS; from Invitrogen)-containing PBS was added at 20 μL per well. After allowing to stand at room temperature for 10 minutes, the supernatant was removed by a centrifugal operation (using a centrifugal dehydrator machine, the supernatant was removed by the same method hereinafter). PBS was added at 25 μL per well, and the supernatant was removed to thus wash each well. The washing was performed twice in total. The supernatant was removed, and blocking solution (Intercept Blocking Buffer; from Li-COR Biosciences) was added at 20 μL per well. After allowing to stand for 30 minutes at room temperature, the supernatant was removed, and a solution obtained by diluting anti-β-actin antibody (Anti-beta Actin antibody [mAbcam 8226]-Loading Control; from abcam) 1,000-fold with blocking solution and a solution obtained by diluting anti-Ras (G12D Mutant Specific) antibody (Ras (G12D Mutant Specific) (D8H7) Rabbit mAb #14429; from Cell Signaling Technology) and anti-β-actin antibody (from abcam) 1,000-fold with blocking solution were respectively added to positive control wells and the other wells at 20 μL per well as a primary antibody. The plate was allowed to stand overnight at 4° C.
The next day, the supernatant was removed. PBS was added at 25 μL per well, and the supernatant was removed to thus wash each well. The washing was performed twice in total. The supernatant was removed, and a solution obtained by diluting Donkey anti-Mouse IgG H&L (IRDye 680RD) (from Li-COR Biosciences) and Goat anti-Rabbit IgG H&L (IRDye 800CW) (from Li-COR Biosciences) 1,000-fold with blocking solution was added at 20 μL per well as a secondary antibody. After allowing to stand for 1 hour at room temperature, the supernatant was removed. PBS was added at 25 μL per well, and the supernatant was removed to thus wash each well. The washing was performed twice in total. After removing the supernatant, the plate was dried with air at room temperature for 2 hours or more, and the 700 nm and 800 nm fluorescent signals were measured with Aerius (from Li-COR Biosciences). […]
(In general: An ELISA detects its analyte on a solid surface through an enzyme-linked reagent.)

Test [1] deals with phosphorylation of threonine 202 (Thr202) and tyrosine 204 (Tyr204) of ERK. As to the kind of experiment: ERK phosphorylation inhibitory effect by Cell ELISA in AsPC-1 (Test Example 2). Conditions: Homo sapiens, ASPC1, AsPC-1 cells, cultured overnight with compound; 1 μM trametinib taken as 0%. The format is cell-based, human. How it is done: Test Example 2: Evaluation of ERK Phosphorylation Inhibitory Effect on Human G12D Mutant KRAS-Positive Pancreatic Cancer Line AsPC-1
The ERK phosphorylation inhibitory effect of test compounds was evaluated by measuring phosphorylation of threonine 202 (Thr202) and tyrosine 204 (Tyr204) of ERK located downstream of the KRAS signal by Cell ELISA.
AsPC-1 cells were seeded on 384-well plates at 36 μL/well to give 2.0×10^4 cells per well. As for the cell culture conditions, RPMI 1640 medium containing 10% fetal bovine serum was used in the presence of 5% CO2 at 37° C.
The next day, the test compounds (10 points having final concentrations in the range of 10 μM to 0.3 nM), trametinib (MEK inhibitor) of a final concentration of 1 μM as positive control and DMSO, which was the solvent for the test compounds, as negative control were diluted 100-fold with a fresh medium and were added at 4 μL per well. The cells were cultured overnight. After culturing, 30% glyoxal solution (40% glyoxal [from Nacalai Tesque] was diluted with PBS) was quickly added at 30 μL per well, and the plate was allowed to stand for 60 minutes at room temperature to thus immobilize the cells. Then, the plate was centrifuged to remove the supernatant (using a centrifugal dehydrator machine, the supernatant was removed by the same method hereinafter), and 0.1% Triton X-100-containing PBS was added at 20 μL per well. After allowing to stand for 10 minutes at room temperature, the supernatant was removed, and the same operation was further repeated. Next, 0.5% SDS-containing PBS was added at 20 μL per well, and after allowing to stand at room temperature for 30 minutes, the supernatant was removed. Subsequently, blocking solution (Intercept Blocking Buffer) was added at 20 μL per well, and the plate was allowed to stand for 1 hour at room temperature. The supernatant was removed, and an ERK (Thr202/Tyr204) phosphorylation antibody (Phospho-p44/42 MAPK (Erk 1/2) (Thr202/Tyr204) (D13.14.4E) XP Rabbit mAb; from Cell Signaling Technology) diluted 2,500-fold with blocking solution was added at 15 μL per well as a primary antibody. The plates were allowed to stand at 4° C. overnight.
The next day, the supernatant was removed. 0.05% Tween-20 (from Thermo Fisher Scientific)-containing PBS was added at 50 μL per well, and the supernatant was removed to thus wash each well. The washing was performed three times in total. After washing, Goat anti-Rabbit IgG H&L (IRDye 800CW) diluted 1,000-fold with blocking solution was added at 15 μL per well as a secondary antibody, and the plates were allowed to stand for 1 hour at room temperature. The supernatant was removed, and each well was washed three times with 0.05% Tween-20-containing PBS in the same manner as after the primary antibody reaction. After removing the supernatant, the plates were dried with air at room temperature for 3 hours or more, and the 800-nm fluorescent signals were measured with Aerius.
With the signaling value at the time of addition of DMSO taken as 100% and with the signaling value at the time of addition of 1 μM trametinib taken as 0%, the 50% inhibitory concentration values (IC50) were calculated by Sigmoid-Emax nonlinear regression analysis.

The test system of test [2] is human G12D mutant KRAS-positive pancreatic cancer line AsPC-1. Nature of the test: Non-anchorage-dependent cell growth inhibition, spheroid 3D cell culture (Test Example 3). The format is cell-based. As to conditions: Homo sapiens, ASPC1, 144 h, AsPC-1 spheroid 3D culture, 6 days, CellTiter Glo 2.0. How it is done:
Test Example 3: Evaluation of Non-Anchorage-Dependent Cell Growth Inhibitory Effect on Human G12D Mutant KRAS-Positive Pancreatic Cancer Line AsPC-1
The non-anchorage-dependent cell growth inhibitory effect of test compounds was evaluated by spheroid 3D cell culture.
AsPC-1 cells were seeded on low-cell-adhesive round bottom 384-well plates (PrimeSurface: from Sumitomo Bakelite) at 36 μL/well to give 5×10^2 cells per well. As for the cell culture conditions, RPMI 1640 medium containing 10% fetal bovine serum was used in the presence of 5% CO2 at 37° C.
The next day, the test compounds (10 or 6 points having final concentrations in the range of 10 μM to 0.3 nM) and DMSO, which was the solvent for the test compounds, as a negative control were diluted 100-fold with a fresh medium and were added at 4 μL per well. After culturing in the presence of 5% CO2 at 37° C. for 6 days, CellTiter Glo 2.0 (from Promega) was added at 20 μL per well. After stirring with a plate mixer (from FINEPCR) at room temperature for 1 hour, the luminescent signals were measured with ARVO X3 (from PerkinElmer).
With the signaling value in treatment with DMSO taken as 100% and with the signaling value in the medium alone without cells taken as 0%, the 50% inhibitory concentration values (IC50) were calculated by Sigmoid-Emax nonlinear regression analysis.

T1 sequence (P01116 1-188 isoform P01116-2 G12D): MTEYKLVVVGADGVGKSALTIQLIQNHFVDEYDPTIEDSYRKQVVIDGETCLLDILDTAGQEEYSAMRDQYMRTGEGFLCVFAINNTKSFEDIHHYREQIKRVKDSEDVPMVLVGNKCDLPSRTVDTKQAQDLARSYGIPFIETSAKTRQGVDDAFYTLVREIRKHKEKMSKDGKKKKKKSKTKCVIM

Usually IC50 stands for the concentration that inhibits the measured activity by half. For `CO[C@@H](C)COc1nc(N(C)[C@H]2CCNC2)c2cc(C3CC3)c(-c3c(C)c(F)cc4[nH]ncc34)c(OCc3ccc(-c4cn([C@H](C(=O)N5C[C@H](O)C[C@H]5C(=O)N[C@@H](CO)c5ccc(-c6scnc6C)cc5)C(C)C)nn4)nc3)c2n1` (atropisomer, axis not shown) [Example 45], on KRAS G12D protein, the DC50 was 27 nM. The values for the IC50 in test [1] and in test [2] were 16 nM and 15 nM, respectively.
As for `CO[C@H](COc1nc(N(C)[C@H]2CCNC2)c2cc(C3CC3)c(-c3c(C)c(F)cc4[nH]ncc34)c(OCc3ccc(-c4cn([C@H](C(=O)N5C[C@H](O)C[C@H]5C(=O)N[C@@H](CO)c5ccc(-c6scnc6C)cc5)C(C)C)nn4)cc3)c2n1)C(F)F` (atropisomer, axis not shown) [Example 43], the DC50 at KRAS G12D protein came out at 41 nM. Moreover, the values for the 50% inhibitory concentration (IC50) in test [1] and in test [2] were 7 nM and 6 nM, respectively.
In the same order, the values of `Cc1ncsc1-c1ccc([C@H](CO)NC(=O)[C@@H]2C[C@@H](O)CN2C(=O)[C@H](C(C)C)n2cc(-c3ccc(COc4c(-c5c(C)c(F)cc6[nH]ncc56)c(C5CC5)cc5c(N(C)[C@H]6CCNC6)nc(OC[C@@H](C)F)nc45)cc3)nn2)cc1` (atropisomer, axis not shown) [Example 48] are 38 nM, 15 nM and 16 nM.
Taken in the same sequence, the figures for `COCC1(COc2nc(N(C)[C@H]3CCNC3)c3cc(C4CC4)c(-c4c(C)c(F)cc5[nH]ncc45)c(OCc4ccc(-c5cn([C@H](C(=O)N6C[C@H](O)C[C@H]6C(=O)N[C@@H](CO)c6ccc(-c7scnc7C)cc6)C(C)C)nn5)cc4)c3n2)CC1` (atropisomer, axis not shown) [Example 49] were 25 nM, 32 nM and 10 nM.
Taken in the same sequence, the figures for `Cc1c(F)cc2[nH]ncc2c1-c1c(C2CC2)cc2c(N(C)[C@H]3CCNC3)cc(OC[C@@H]3CCCO3)nc2c1OCc1ccc(-c2cn([C@H](C(=O)N3C[C@H](O)C[C@H]3C(=O)N[C@@H](CO)c3ccc(-n4ccnc4C)cc3)C(C)C)nn2)cc1` (atropisomer, axis not shown) [Example 27] were 68 nM, 7 nM and 7 nM.
Take `CO[C@@H](C)COc1nc(N2CCNCC2)c2cc(C3CC3)c(-c3c(C)c(F)cc4[nH]ncc34)c(OCc3ccc(-c4cn([C@H](C(=O)N5C[C@H](O)C[C@H]5C(=O)N[C@@H](CO)c5ccc(-c6scnc6C)cc5)C(C)C)nn4)cc3)c2n1` (atropisomer, axis not shown) [Example 54]: at KRAS G12D protein, the DC50 is 34 nM. Further, the concentration for half-maximal inhibition (IC50) in test [1] amounted to 5 nM; in test [2], 7 nM.
In the same order, the values of `CO[C@@H](C)COc1nc(N(C)[C@H]2CCNC2)c2cc(C3CC3)c(-c3c(C)c(F)cc4[nH]ncc34)c(OCc3ccc(-c4cn([C@H](C(=O)N5C[C@H](O)C[C@H]5C(=O)N[C@@H](CO)c5ccc(-n6cncn6)cc5)C(C)C)nn4)cc3)c2n1` (atropisomer, axis not shown) [Example 40] are 47 nM, 7 nM and 6 nM.
In the same order, the values of `CO[C@@H](C)[C@H](C)Oc1nc(N(C)[C@H]2CCNC2)c2cc(C3CC3)c(-c3c(C)c(F)cc4[nH]ncc34)c(OCc3ccc(-c4cn([C@H](C(=O)N5C[C@H](O)C[C@H]5C(=O)N[C@@H](CO)c5ccc(-c6scnc6C)cc5)C(C)C)nn4)cc3)c2n1` (atropisomer, axis not shown) [Example 20] are 41 nM, 38 nM and 21 nM.
Taken in the same sequence, the figures for `CO[C@@H](C)COc1nc(N(C)[C@H]2CCNC2)c2cc(C3CC3)c(-c3c(C)c(F)cc4[nH]ncc34)c(OCc3ccc(-c4cn([C@H](C(=O)N5C[C@H](O)C[C@H]5C(=O)N[C@@H](CO)c5ccc(N6CCOC6=O)cc5)C(C)C)nn4)cc3)c2n1` (atropisomer, axis not shown) [Example 15] were 99 nM, 7 nM and 7 nM.
Consider `CO[C@@H](C)COc1nc(N(C)[C@H]2CCNC2)c2cc(C3CC3)c(-c3c(C)c(F)cc4[nH]ncc34)c(OCc3ccc(-c4cn([C@H](C(=O)N5C[C@H](O)C[C@H]5C(=O)N[C@@H](CO)c5ccc(-n6ccnc6C)cc5)C(C)C)nn4)cc3)c2n1` (atropisomer, axis not shown) [Example 21], for which the DC50 on KRAS G12D protein worked out at 33 nM. Besides, the concentration for half-maximal inhibition (IC50) in test [1] was found to be 47 nM; in test [2] it was 53 nM.
